Assay [1] deals with T1, PI3Kα (Homo sapiens, UniProt P42336). In words: Adapta universal kinase assay. The class given is biochemical. To be noted: read-out: % inhibition against PI3Kα enzyme ± SD ^b.
Assay [2] concerns the target T1, PI3Kα. In words: Adapta universal kinase assay. The class given is biochemical. To be noted: read-out: % inhibition against PI3Kα enzyme ± SD ^b. The source holds these as a separate data set.

SMILES strings stand for the structures. Read-outs that look alike come from different tables or passages of the source.

T1 sequence (P42336 whole entry): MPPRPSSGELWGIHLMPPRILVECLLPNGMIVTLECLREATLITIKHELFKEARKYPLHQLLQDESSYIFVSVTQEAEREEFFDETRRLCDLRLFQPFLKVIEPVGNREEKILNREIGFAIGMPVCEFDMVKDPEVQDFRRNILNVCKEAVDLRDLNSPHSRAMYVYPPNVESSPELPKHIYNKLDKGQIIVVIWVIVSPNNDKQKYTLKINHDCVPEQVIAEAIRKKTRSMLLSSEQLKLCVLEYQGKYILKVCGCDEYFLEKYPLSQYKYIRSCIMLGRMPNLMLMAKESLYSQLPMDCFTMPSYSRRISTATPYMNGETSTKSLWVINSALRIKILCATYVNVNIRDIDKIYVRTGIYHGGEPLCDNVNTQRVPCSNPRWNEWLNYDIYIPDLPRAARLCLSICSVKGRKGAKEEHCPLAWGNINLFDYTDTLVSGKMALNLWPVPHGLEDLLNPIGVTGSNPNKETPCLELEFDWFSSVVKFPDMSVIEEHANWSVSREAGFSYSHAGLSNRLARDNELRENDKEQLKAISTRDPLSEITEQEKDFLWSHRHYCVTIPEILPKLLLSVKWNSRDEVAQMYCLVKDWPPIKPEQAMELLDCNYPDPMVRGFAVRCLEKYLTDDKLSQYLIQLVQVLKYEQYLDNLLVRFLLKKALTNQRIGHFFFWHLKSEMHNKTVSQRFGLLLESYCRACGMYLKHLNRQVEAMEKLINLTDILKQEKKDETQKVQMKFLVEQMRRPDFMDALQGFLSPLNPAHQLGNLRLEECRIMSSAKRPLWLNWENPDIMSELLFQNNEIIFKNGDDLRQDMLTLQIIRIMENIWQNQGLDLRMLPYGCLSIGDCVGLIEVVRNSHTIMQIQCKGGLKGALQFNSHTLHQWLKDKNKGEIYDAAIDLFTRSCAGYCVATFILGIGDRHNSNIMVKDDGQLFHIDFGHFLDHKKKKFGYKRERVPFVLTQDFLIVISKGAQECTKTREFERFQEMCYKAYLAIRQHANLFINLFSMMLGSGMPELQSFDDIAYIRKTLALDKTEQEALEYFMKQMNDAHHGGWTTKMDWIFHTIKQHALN
T1 sequence (P27986 2-724, further chain): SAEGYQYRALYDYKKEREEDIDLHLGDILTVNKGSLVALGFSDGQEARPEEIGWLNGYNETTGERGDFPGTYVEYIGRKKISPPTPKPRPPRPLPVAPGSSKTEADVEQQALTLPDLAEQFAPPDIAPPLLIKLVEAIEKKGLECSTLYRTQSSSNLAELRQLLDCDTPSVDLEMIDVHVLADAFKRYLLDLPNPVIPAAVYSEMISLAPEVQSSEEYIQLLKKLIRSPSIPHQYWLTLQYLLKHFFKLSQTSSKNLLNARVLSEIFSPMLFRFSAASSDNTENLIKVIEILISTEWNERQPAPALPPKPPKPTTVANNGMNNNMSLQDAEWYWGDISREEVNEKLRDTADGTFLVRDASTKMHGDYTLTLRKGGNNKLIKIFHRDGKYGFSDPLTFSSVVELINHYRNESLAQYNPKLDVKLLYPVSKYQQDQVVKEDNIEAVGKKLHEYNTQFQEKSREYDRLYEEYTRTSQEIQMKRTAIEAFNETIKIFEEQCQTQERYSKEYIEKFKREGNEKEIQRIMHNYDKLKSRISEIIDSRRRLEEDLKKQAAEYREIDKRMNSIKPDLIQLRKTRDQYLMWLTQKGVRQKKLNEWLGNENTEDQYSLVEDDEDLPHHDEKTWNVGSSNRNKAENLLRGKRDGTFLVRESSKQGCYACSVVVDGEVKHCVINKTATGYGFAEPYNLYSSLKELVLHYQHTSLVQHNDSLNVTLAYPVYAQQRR

As usually defined, the inhibition is the drop in the measured response relative to a control, in per cent. Turning to `CCN(CC)c1nc(NCc2ccccc2)nc(Nc2ccc(S(=O)(=O)Nc3ccccn3)cc2)n1` [compound 20, 4-{[4-(Benzylamino)-6-(diethylamino)-1,3,5-triazin-2-yl]amino}-N-(pyridin-2-yl)benzene-1-sulfonamide], the inhibition at 100 µM at PI3Kα [1] is 46%.

With `CCN(CC)c1nc(Nc2ccc(S(=O)(=O)NC(=N)N)cc2)nc(N2CCOCC2)n1` [compound 34, 1-(4-{[4-(Diethylamino)-6-(morpholin-4-yl)-1,3,5-triazin-2-yl]amino}benzene-sulfonyl)guanidine], the inhibition at 100 µM at PI3Kα [2] came out at 68 ± 3%.

The values are drawn from PMC10116527 (ACS Omega, 2023).
